Measurements published in patent US20050282755A1, “Compositions having antimicrobial activity and uses thereof” (priority 2004, published 2005).
Converted amounts (≈) assume the structure as drawn. Non-standard residues stand in square brackets, D forms with d. Residues, ends and D or L forms follow the SMILES beside them. *: point of attachment. 1Nal = N[C@@H](Cc1cccc2ccccc12)C(=O)O; Palmitoyl = CCCCCCCCCCCCCCCC(=O)*; Lauroyl = CCCCCCCCCCCC(=O)*

Experiments:
Assay type in all cases: cell-based
[1] = system: Staphylococcus aureus ATCC 29213; test: MIC, NCCLS M7-A6 broth microdilution, cation-adjusted Mueller Hinton broth (Table 9, no superscript); settings: ATCC 29213
How it was run: (§1)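 CAMHB microdilution; final inoculum 5×10^5–1×10^6 CFU/milliliter from log-phase culture; overnight, 37° C; MIC = lowest peptide conc. without visible growth (turbidity) vs no-peptide control.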

[2] = system: Escherichia coli ATCC 25922; test: MIC, NCCLS M7-A6 broth microdilution (Table 9, no superscript); settings: ATCC 25922
How it was run: as §1

[3] = system: Pseudomonas aeruginosa ATCC 27853; test: as above; settings: ATCC 27853
How it was run: as §1

Salmonella dublin (Lane) = test: as above
How it was run: as §1

[4] = system: Staphylococcus epidermidis ATCC 12228; test: as above; settings: ATCC 12228
How it was run: as §1

| SMILES | MIC S. aureus [1] | MIC E. coli [2] | MIC P. aeruginosa [3] | MIC S. dublin (Salmonella dublin (Lane)) | MIC S. epidermidis [4] |
| --- | --- | --- | --- | --- | --- |
| CCCCCCCCCCCCCCCC(=O)N[C@H](CCCNC(=N)N)C(=O)N[C@H](CO)C(=O)N[C@H](CCCNC(=N)N)C(=O)N[C@H](Cc1c[nH]c2ccccc12)C(=O)N[C@H](CCCNC(=N)N)C(=O)N[C@H](CC(=O)O)C(=O)N[C@@H](C(=O)N[C@H](C)C(=O)N[C@H](CCCNC(=N)N)C(=O)N[C@H](CC(N)=O)C(=O)N[C@H](Cc1ccccc1)C(=O)N[C@H](CC(C)C)C(=O)N[C@H](CCCNC(=N)N)C(N)=O)C(C)C [Peptide 254, Palmityl-rsrwrdvarnflr-NH2] (Palmitoyl-[dR][dS][dR][dW][dR][dD][dV][dA][dR][dN][dF][dL][dR]-NH2) | 32 µg/mL (≈ 16.2 µM) | >64 µg/mL | 64 µg/mL (≈ 32.5 µM) | >64 µg/mL | 4 µg/mL (≈ 2.03 µM) |
| CCCCCCCCCCCC(=O)N[C@@H](CCCNC(=N)N)C(=O)N[C@@H](CO)C(=O)N[C@@H](CCCNC(=N)N)C(=O)N[C@@H](Cc1cccc2ccccc12)C(=O)N[C@@H](CCCNC(=N)N)C(=O)N[C@@H](CC(=O)O)C(=O)N[C@@H](Cc1cccc2ccccc12)C(=O)N[C@@H](C)C(=O)N[C@@H](CCCNC(=N)N)C(=O)N[C@@H](CC(N)=O)C(=O)N[C@@H](Cc1cccc2ccccc12)C(=O)N[C@@H](CCSC)C(=O)N[C@@H](CCCNC(=N)N)C(N)=O [Peptide 155, Lauryl-RSRZRDZARNZMR-NH2 Z = 1-naphthylalanine] (Lauroyl-RSR[1Nal]RD[1Nal]ARN[1Nal]MR-NH2) | 64 µg/mL (≈ 30.6 µM) | >64 µg/mL | >64 µg/mL | 16 µg/mL (≈ 7.65 µM) | 16 µg/mL (≈ 7.65 µM) |
| CSCC[C@H](NC(=O)[C@H](Cc1ccccc1)NC(=O)[C@H](CC(N)=O)NC(=O)[C@H](CCCNC(=N)N)NC(=O)[C@H](C)NC(=O)[C@H](Cc1c[nH]c2ccccc12)NC(=O)[C@H](CC(=O)O)NC(=O)[C@H](CCCNC(=N)N)NC(=O)[C@H](Cc1c[nH]c2ccccc12)NC(=O)[C@H](CCCNC(=N)N)NC(=O)[C@H](CO)NC(=O)[C@H](CCCNC(=N)N)NC(C)=O)C(=O)N[C@@H](CCCNC(=N)N)C(N)=O [Peptide 94, Ac-RSRWRDWARNFMR-NH2] (Ac-RSRWRDWARNFMR-NH2) | >64 µg/mL | >64 µg/mL | >64 µg/mL | >64 µg/mL | 16 µg/mL (≈ 8.52 µM) |
| CCCCCCCCCCCC(=O)N[C@H](CCCNC(=N)N)C(=O)N[C@H](CO)C(=O)N[C@H](CCCNC(=N)N)C(=O)N[C@H](Cc1c[nH]c2ccccc12)C(=O)N[C@H](CCCNC(=N)N)C(=O)N[C@H](CC(=O)O)C(=O)N[C@@H](C(=O)N[C@H](C)C(=O)N[C@H](CCCNC(=N)N)C(=O)N[C@H](CC(N)=O)C(=O)N[C@H](Cc1ccccc1)C(=O)N[C@H](CO)C(=O)N[C@H](CCCNC(=N)N)C(N)=O)C(C)C [Peptide 235, Lauryl-rsrwrdvarnfsr-NH2] (Lauroyl-[dR][dS][dR][dW][dR][dD][dV][dA][dR][dN][dF][dS][dR]-NH2) | 16 µg/mL (≈ 8.48 µM) | 16 µg/mL (≈ 8.48 µM) | 64 µg/mL (≈ 33.9 µM) | 32 µg/mL (≈ 17 µM) | 8 µg/mL (≈ 4.24 µM) |
| CCCCCCCCCCCC(=O)N[C@@H](CCCNC(=N)N)C(=O)N[C@@H](CO)C(=O)N[C@@H](CCCNC(=N)N)C(=O)N[C@@H](Cc1c[nH]c2ccccc12)C(=O)N[C@@H](CCCNC(=N)N)C(=O)N[C@@H](CC(=O)O)C(=O)N[C@H](C(=O)N[C@@H](Cc1cccc2ccccc12)C(=O)N[C@@H](CCCNC(=N)N)C(=O)N[C@@H](CC(N)=O)C(=O)N[C@@H](Cc1ccccc1)C(=O)N[C@@H](CCSC)C(=O)N[C@@H](CCCNC(=N)N)C(N)=O)C(C)C [Peptide 151, Lauryl-RSRWRDVZRNFMR-NH2 Z = 1-naphthylalanine] (Lauroyl-RSRWRDV[1Nal]RNFMR-NH2) | 32 µg/mL (≈ 15.6 µM) | 64 µg/mL (≈ 31.1 µM) | >64 µg/mL | 8 µg/mL (≈ 3.89 µM) | 4 µg/mL (≈ 1.94 µM) |
| CCCCCCCCCCCCCCCC(=O)N[C@H](CCCNC(=N)N)C(=O)N[C@H](CO)C(=O)N[C@H](CCCNC(=N)N)C(=O)N[C@H](Cc1c[nH]c2ccccc12)C(=O)N[C@H](CCCNC(=N)N)C(=O)N[C@H](CC(=O)O)C(=O)N[C@@H](C(=O)N[C@H](C)C(=O)N[C@H](CCCNC(=N)N)C(=O)N[C@H](CC(N)=O)C(=O)N[C@H](Cc1ccccc1)C(=O)N[C@H](CC(C)C)C(=O)N[C@H](CCCNC(=N)N)C(N)=O)C(C)C [Peptide 191, Palmitoyl-rsrwrdvarnflr-NH2] (Palmitoyl-[dR][dS][dR][dW][dR][dD][dV][dA][dR][dN][dF][dL][dR]-NH2) | 64 µg/mL (≈ 32.5 µM) | 64 µg/mL (≈ 32.5 µM) | >64 µg/mL | 8 µg/mL (≈ 4.06 µM) | 4 µg/mL (≈ 2.03 µM) |
| CCCCCCCCCCCC(=O)N[C@@H](CCCNC(=N)N)C(=O)N[C@@H](CO)C(=O)N[C@@H](CCCNC(=N)N)C(=O)N[C@@H](Cc1c[nH]c2ccccc12)C(=O)N[C@@H](CCCNC(=N)N)C(=O)N[C@@H](CC(=O)O)C(=O)N[C@H](C(=O)N[C@@H](C)C(=O)N[C@@H](CCCNC(=N)N)C(=O)N[C@@H](CC(N)=O)C(=O)N[C@@H](Cc1ccccc1)C(=O)N[C@@H](CC(C)C)C(N)=O)C(C)C [Peptide 161, Lauryl-RSRWRDVARNFL-NH2] (Lauroyl-RSRWRDVARNFL-NH2) | 8 µg/mL (≈ 4.55 µM) | 16 µg/mL (≈ 9.11 µM) | >64 µg/mL | >64 µg/mL | 4 µg/mL (≈ 2.28 µM) |
| CCCCCCCCCCCC(=O)N[C@@H](CO)C(=O)N[C@@H](CCCNC(=N)N)C(=O)N[C@@H](Cc1c[nH]c2ccccc12)C(=O)N[C@@H](CCCNC(=N)N)C(=O)N[C@@H](CC(=O)O)C(=O)N[C@H](C(=O)N[C@@H](C)C(=O)N[C@@H](CCCNC(=N)N)C(=O)N[C@@H](CC(N)=O)C(=O)N[C@@H](Cc1ccccc1)C(=O)N[C@@H](CC(C)C)C(=O)N[C@@H](CCCNC(=N)N)C(N)=O)C(C)C [Peptide 162, Lauryl-SRWRDVARNFLR-NH2] (Lauroyl-SRWRDVARNFLR-NH2) | 4 µg/mL (≈ 2.28 µM) | 32 µg/mL (≈ 18.2 µM) | >64 µg/mL | 16 µg/mL (≈ 9.11 µM) | 8 µg/mL (≈ 4.55 µM) |
| CCCCCCCCCCCC(=O)N[C@@H](CCCNC(=N)N)C(=O)N[C@@H](CO)C(=O)N[C@@H](CCCNC(=N)N)C(=O)N[C@@H](Cc1cccc2ccccc12)C(=O)N[C@@H](CCCNC(=N)N)C(=O)N[C@@H](CC(=O)O)C(=O)N[C@H](C(=O)N[C@@H](C)C(=O)N[C@@H](CCCNC(=N)N)C(=O)N[C@@H](CC(N)=O)C(=O)N[C@@H](Cc1cccc2ccccc12)C(=O)N[C@@H](CCSC)C(=O)N[C@@H](CCCNC(=N)N)C(N)=O)C(C)C [Peptide 154, Lauryl-RSRZRDVARNZMR-NH2 Z = 1-naphthylalanine] (Lauroyl-RSR[1Nal]RDVARN[1Nal]MR-NH2) | 4 µg/mL (≈ 2.01 µM) | 64 µg/mL (≈ 32.1 µM) | >64 µg/mL | 8 µg/mL (≈ 4.02 µM) | 8 µg/mL (≈ 4.02 µM) |
| CCCCCCCCCCCC(=O)N[C@H](C)C(=O)N[C@H](CO)C(=O)N[C@H](CCCNC(=N)N)C(=O)N[C@H](Cc1c[nH]c2ccccc12)C(=O)N[C@H](CCCNC(=N)N)C(=O)N[C@H](CC(=O)O)C(=O)N[C@@H](C(=O)N[C@H](C)C(=O)N[C@H](CCCNC(=N)N)C(=O)N[C@H](CC(N)=O)C(=O)N[C@H](Cc1ccccc1)C(=O)N[C@H](CCSC)C(=O)N[C@H](CCCNC(=N)N)C(N)=O)C(C)C [Peptide 236, Lauryl-asrwrdvarnfmr-NH2] (Lauroyl-[dA][dS][dR][dW][dR][dD][dV][dA][dR][dN][dF][dM][dR]-NH2) | 32 µg/mL (≈ 17.3 µM) | 64 µg/mL (≈ 34.7 µM) | >64 µg/mL | >64 µg/mL | 16 µg/mL (≈ 8.67 µM) |
| CCCCCCCCCCCC(=O)N[C@H](CCCNC(=N)N)C(=O)N[C@H](CO)C(=O)N[C@H](CCCNC(=N)N)C(=O)N[C@H](Cc1c[nH]c2ccccc12)C(=O)N[C@H](CCCNC(=N)N)C(=O)N[C@H](CC(=O)O)C(=O)N[C@@H](C(=O)N[C@H](C)C(=O)N[C@H](C)C(=O)N[C@H](CC(N)=O)C(=O)N[C@H](Cc1ccccc1)C(=O)N[C@H](CCSC)C(=O)N[C@H](CCCNC(=N)N)C(N)=O)C(C)C [Peptide 230, Lauryl-rsrwrdvaanfmr-NH2] (Lauroyl-[dR][dS][dR][dW][dR][dD][dV][dA][dA][dN][dF][dM][dR]-NH2) | >64 µg/mL | >64 µg/mL | >64 µg/mL | >64 µg/mL | 4 µg/mL (≈ 2.17 µM) |
| CCCCCCCCCCCC(=O)N[C@@H](CCCNC(=N)N)C(=O)N[C@@H](CO)C(=O)N[C@@H](CCCNC(=N)N)C(=O)N[C@@H](Cc1c[nH]c2ccccc12)C(=O)N[C@@H](CCCNC(=N)N)C(=O)N[C@@H](CC(=O)O)C(=O)N[C@@H](Cc1cccc2ccccc12)C(=O)N[C@@H](C)C(=O)N[C@@H](CCCNC(=N)N)C(=O)N[C@@H](CC(N)=O)C(=O)N[C@@H](Cc1cccc2ccccc12)C(=O)N[C@@H](CCSC)C(=O)N[C@@H](CCCNC(=N)N)C(N)=O [Peptide 156, Lauryl-RSRWRDZARNZMR-NH2 Z = 1-naphthylalanine] (Lauroyl-RSRWRD[1Nal]ARN[1Nal]MR-NH2) | 32 µg/mL (≈ 15.4 µM) | 64 µg/mL (≈ 30.8 µM) | >64 µg/mL | 8 µg/mL (≈ 3.85 µM) | 16 µg/mL (≈ 7.69 µM) |
